{"source": "paper PMC8097335", "about": "“A High‐Affinity Calmodulin‐Binding Site in the CyaA Toxin Translocation Domain is Essential for Invasion of Eukaryotic Cells” (Advanced Science, 2021)", "origin": "cited, not measured here", "target": "CaM", "settings": "quoted without reference; read-out: Kd of AC:CaM; cited from earlier work"}
{"substance": "AC: N-terminal adenyl cyclase catalytic domain of CyaA, first 364 residues", "values": [{"measurement": "Kd", "result": "~0.1", "unit": "nM"}]}
